One data set concerns ADH. Nature of the data set: Metabolism / substrate recognition by ADH. The format is in vitro ADME.
For data set [1], the system named is withdrawal seizures in alcohol-dependent mice. The data set is described as follows: Predicted anti-seizure activity. In kind it is in vivo, mouse. Further details: key: la = long-acting; The ++ farnesol activity was arbitrary. The following applies: for Predicted anti-seizure activity: long-acting (la): duration flag in brackets.
Another data set relates to microsomal FolDH. The data set is described as follows: Recognition by microsomal FolDH. The format is in vitro ADME.
Data set [2] has as its target T1, neuronal voltage-gated, L-type (Cav1.3) α1D subunit Ca^2+ channel (Rattus norvegicus, UniProt P27732).
T1 construct: KCl-induced intracellular Ca^2+ signaling in non-NGF treated PC12 cells loaded with fura-2; endogenous in cells; host or cells: PC12 cells (non-NGF treated)
Nature of the data set: KCl-induced Ca^2+ signaling in fura-2 loaded PC12 cells. The settings on record: for block of KCl-induced Ca^2+ signaling: PC12 cells in culture, n=3/group, FIG. 3; for activity on neuronal L-type Ca^2+ channels compared with all-trans farnesol: non-NGF PC12 cells, fura-2, FIG. 1 / FIG. 3. The format is cell-based. The source says: According to particular aspects of the present invention, the alcohol group is essential for activity. Additionally, the activity of farnesol metabolites on neuronal voltage-gated L-type Ca^2+ channels was investigated. […] The Ca^2+ channel activity is expressed as % inhibition of KCl-induced intracellular Ca^2+ signaling in non-NGF differentiated PC12 cells loaded with fura-2 (see Materials and Methods under Example 2). The assayed molecules are: FPP—farnesyl pyrophosphate; FOH—all-trans farnesol; FCHO—all-trans farnesal; and FCOOH—all-trans farnesoic acid (prepared by Dr. McDougal).
(§1) To identify compounds with enhanced L-type Ca^2+ channel blocker activity, several compounds were either purchased or synthesized, and then tested for their ability to inhibit: (1) KCl-induced contraction in isolated arteries; (2) KCl-induced Ca^2+ signaling in fura-2 loaded arteries; and (3) KCl-induced Ca^2+ signaling in fura-2 loaded PC12 cells, all using art-recognized methods established in the applicants' laboratories (Roullet, 1993, 1994, 1995, 1997; De Lima, 1999). Arteries express smooth muscle voltage-gated, L-type (Cav1.2 or α1C subunit) Ca^2+ channels, whereas PC12 cells constitutively express the neuronal voltage-gated, L-type (Cav1.3) α1D subunit (Ertel, 2000).
Ca^2+ channel activity is expressed as % inhibition of KCl-induced intracellular Ca^2+ signaling in non-NGF treated PC12 cells loaded with fura-2.

The target in data set [3] is T2, N-type Ca^2+ channel (α1B) (Homo sapiens, UniProt Q00975).
T2 construct: host or cells: HEK cells
The following applies: cited from earlier work.

Data set [4] deals with pentylenetetrazole-induced seizures. The following applies: in vivo; cited from earlier work.
The target in data set [5] is T3, P/Q-type Ca^2+ channels (α1A) (Homo sapiens, UniProt O00555).
T3 construct: host or cells: HEK cells
The settings on record: micromolar concentration; cited from earlier work.

Data set [6] concerns the target T1, neuronal voltage-gated, L-type (Cav1.3) α1D subunit Ca^2+ channel. The settings on record: PC12 cells; cited from earlier work.
The target in data set [7] is T4, cardiac L-type Ca^2+ channels (α1C) (Homo sapiens, UniProt Q13936).
T4 construct: host or cells: HEK cells
The following applies: micromolar concentration; cited from earlier work.

For data set [8], the target named is T5, R-type Ca^2+ channels (α1E) (Homo sapiens, UniProt Q15878).
T5 construct: host or cells: HEK cells
The settings on record: micromolar concentration; cited from earlier work.

Data set [9] deals with T6, voltage-gated L-type Ca^2+ channels (Homo sapiens, UniProt Q13936).
T6 construct: host or cells: arteries / vascular smooth muscle cells
The settings on record: cited from earlier work.

The next data set relates to DBA/2J mice. In kind it is in vivo, mouse. As for the experimental part: experiments were conducted in two mouse strains: Withdrawal Seizure Prone replicate 1 (WSP1); and DBA/2J. WSP1 mice have been selectively bred for their high sensitivity to ethanol and enhanced expression of alcohol withdrawal seizures (Kosobud, 1995; Metten, 1996). DBA/J2 mice also have pronounced alcohol withdrawal symptoms following either chronic treatment or a single injection of a hypnotic dose of alcohol (Crabbe, 1983; Metten, 1994; Crabbe & Metten, in preparation), but are sometimes preferred to the WSP1 mice for the screening of anti-AWS drugs, because of their lower basal level of convulsions (in the absence of alcohol).
DBA/2J mice (males and females; mean BW=23 g; n=44) were injected intra peritoneally (i.p.) with a loading dose of 1.5 g/kg ethanol (20% v/v saline solution) and with 68.1 mg/kg pyrazole hydrochloride, and then placed for 72 h into inhalation chambers (3-4 animals/cage) set at 5 mg ethanol/L air (Guppy, 1995; Crabbe, 1998). The animals were removed from the chambers after 24 and 48 h, and re-injected with pyrazole. The pyrazole injections are necessary to reduce mortality and heterogeneity in withdrawal reactions (Goldstein, 1972). A second group of animals matched for BW and sex (n=32), were housed under normal (‘air-breathing’) conditions and served as pyrazole-injected controls. All animals had free access to food and water and were housed with a 12 hr day-night light cycle. Upon withdrawal from the chambers (t=0), body weight was determined and a tail blood sample was collected for the determination of blood alcohol concentration (BEC, alcohol-treated animals only; Crabbe, 1998). […] Injections were made either 3 hours (GROUP A) or 6 hours (GROUP B) after withdrawal (approximately half of the animals were used in each group). These time points were chosen to precede peak withdrawal (GROUP A at 3 hours) as it begins to ascend above control levels to determine whether farnesol would prevent withdrawal, and to treat withdrawal at its peak (GROUP B at 6 hours). HICs were scored hourly until injections (0 to 3 h for GROUP A and 0 to 6 h for GROUP B). Immediately after HIC scoring at the hour-3 or hour-6 time points, the animals were injected with farnesol or vehicle, and scored 10, 20, 30 and 40 minutes later. The hourly scoring was then resumed at either 4 hours or 7 hours, and continued to the 10-hour time point.

A further data set concerns WSP1 mice. Nature of the data set: Acute ethanol withdrawal HIC scoring in WSP1 mice. In kind it is in vivo, mouse. The method, then:
experiments were conducted in two mouse strains: […], 1994; Crabbe & […], in preparation), but are sometimes preferred to the WSP1 mice for the screening of anti-AWS drugs, because of their lower basal level of convulsions (in the absence of alcohol). […] Immediately after the hour-7 time point HIC score (a time of maximal withdrawal in this strain), animals were injected with either 200 mg/kg farnesol (suspension in saline containing 3 g/l bovine serum albumin) or vehicle, and scored 8, 16, 24, 32, 40, 48 and 56 minutes later using a scale from 0 to 7 (Crabbe, 1991; scoring scale shown in TABLE 1). The time course was then resumed (animals were scored at hour 8, etc.).

Data set [10] has as its target T7, smooth muscle voltage-gated, L-type (Cav1.2 or α1C subunit) Ca^2+ channels (Mus musculus, UniProt Q01815).
T7 construct: KCl-induced contraction in isolated arteries; from tissue; host or cells: mouse mesenteric arteries
The data set is described as follows: KCl-induced contraction in isolated arteries. The following applies: FIG. 5 / FIG. 6 (25 μM). As for the experimental part:
Contractions obtained after 30 min. incubation with the test compounds (left portion of graph), and after a 60-min. wash-out (right portion of graph).
as §1

SMILES strings stand for the structures.

Usually IC50 stands for the concentration at which inhibition is half-maximal.

T7 sequence (Q01815 whole entry): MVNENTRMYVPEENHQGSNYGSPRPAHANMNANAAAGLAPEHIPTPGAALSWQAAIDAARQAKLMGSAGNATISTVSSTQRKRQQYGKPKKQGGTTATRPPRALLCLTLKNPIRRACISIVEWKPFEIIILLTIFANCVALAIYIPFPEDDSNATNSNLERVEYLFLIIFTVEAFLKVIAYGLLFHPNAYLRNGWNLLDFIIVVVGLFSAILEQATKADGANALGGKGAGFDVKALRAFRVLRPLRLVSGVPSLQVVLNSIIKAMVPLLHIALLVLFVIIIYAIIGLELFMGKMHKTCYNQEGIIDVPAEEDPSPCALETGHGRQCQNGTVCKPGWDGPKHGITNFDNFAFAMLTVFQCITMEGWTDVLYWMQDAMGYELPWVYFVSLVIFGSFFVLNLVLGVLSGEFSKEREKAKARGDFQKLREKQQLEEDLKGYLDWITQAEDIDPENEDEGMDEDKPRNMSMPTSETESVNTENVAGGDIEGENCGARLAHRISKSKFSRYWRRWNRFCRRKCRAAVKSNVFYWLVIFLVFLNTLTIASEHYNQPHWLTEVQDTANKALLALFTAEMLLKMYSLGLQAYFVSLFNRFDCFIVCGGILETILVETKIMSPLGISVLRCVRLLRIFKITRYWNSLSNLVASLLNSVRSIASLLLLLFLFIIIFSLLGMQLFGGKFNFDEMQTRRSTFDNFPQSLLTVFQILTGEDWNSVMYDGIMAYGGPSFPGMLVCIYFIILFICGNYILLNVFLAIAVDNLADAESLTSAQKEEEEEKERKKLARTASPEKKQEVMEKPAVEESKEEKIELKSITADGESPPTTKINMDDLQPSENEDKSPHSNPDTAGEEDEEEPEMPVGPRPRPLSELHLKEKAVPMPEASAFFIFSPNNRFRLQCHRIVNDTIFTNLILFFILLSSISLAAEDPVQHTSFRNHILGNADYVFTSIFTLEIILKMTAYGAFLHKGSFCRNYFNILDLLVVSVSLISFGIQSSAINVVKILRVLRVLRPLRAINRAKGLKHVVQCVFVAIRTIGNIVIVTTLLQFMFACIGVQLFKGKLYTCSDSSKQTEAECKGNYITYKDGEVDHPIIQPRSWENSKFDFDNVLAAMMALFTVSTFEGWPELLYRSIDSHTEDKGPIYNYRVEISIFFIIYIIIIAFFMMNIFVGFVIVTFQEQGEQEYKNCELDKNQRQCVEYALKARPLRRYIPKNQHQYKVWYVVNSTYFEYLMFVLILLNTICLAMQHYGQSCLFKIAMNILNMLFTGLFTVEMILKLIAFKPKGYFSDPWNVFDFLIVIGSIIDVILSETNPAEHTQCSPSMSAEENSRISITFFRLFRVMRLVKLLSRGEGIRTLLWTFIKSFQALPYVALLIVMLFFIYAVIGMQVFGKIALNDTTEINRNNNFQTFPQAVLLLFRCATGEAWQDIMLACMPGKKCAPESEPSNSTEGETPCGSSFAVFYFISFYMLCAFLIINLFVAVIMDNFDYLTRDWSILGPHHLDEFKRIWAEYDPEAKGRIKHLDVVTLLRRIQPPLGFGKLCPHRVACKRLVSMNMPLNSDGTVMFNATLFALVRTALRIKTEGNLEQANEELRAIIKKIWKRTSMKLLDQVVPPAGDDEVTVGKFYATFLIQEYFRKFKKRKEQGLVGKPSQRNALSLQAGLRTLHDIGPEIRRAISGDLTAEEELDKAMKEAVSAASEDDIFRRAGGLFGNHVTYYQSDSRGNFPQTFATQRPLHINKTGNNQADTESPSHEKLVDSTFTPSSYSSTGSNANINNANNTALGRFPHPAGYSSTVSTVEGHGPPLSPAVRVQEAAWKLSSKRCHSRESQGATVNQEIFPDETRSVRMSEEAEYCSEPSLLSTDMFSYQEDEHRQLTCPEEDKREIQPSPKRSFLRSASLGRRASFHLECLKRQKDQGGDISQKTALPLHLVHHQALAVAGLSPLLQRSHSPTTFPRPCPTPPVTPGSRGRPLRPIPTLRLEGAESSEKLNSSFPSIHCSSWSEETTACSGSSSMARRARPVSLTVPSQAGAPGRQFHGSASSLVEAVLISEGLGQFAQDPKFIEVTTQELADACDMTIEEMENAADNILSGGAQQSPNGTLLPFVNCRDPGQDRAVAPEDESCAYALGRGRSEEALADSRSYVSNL
T7 sequence (P54285 whole entry partner): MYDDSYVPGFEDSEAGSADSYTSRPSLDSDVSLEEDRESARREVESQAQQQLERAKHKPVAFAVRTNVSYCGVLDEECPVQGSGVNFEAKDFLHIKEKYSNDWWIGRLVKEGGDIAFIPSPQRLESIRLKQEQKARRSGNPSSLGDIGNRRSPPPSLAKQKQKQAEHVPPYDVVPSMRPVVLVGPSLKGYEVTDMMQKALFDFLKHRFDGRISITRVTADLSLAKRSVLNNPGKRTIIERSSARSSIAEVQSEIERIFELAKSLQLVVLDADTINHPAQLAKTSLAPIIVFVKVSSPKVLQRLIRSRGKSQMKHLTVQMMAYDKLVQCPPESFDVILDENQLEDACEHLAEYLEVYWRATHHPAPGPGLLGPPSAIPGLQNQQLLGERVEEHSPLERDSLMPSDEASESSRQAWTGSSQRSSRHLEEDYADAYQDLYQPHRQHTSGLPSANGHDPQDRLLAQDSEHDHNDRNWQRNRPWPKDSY
T7 sequence (O08532 25-956 partner limits assumed): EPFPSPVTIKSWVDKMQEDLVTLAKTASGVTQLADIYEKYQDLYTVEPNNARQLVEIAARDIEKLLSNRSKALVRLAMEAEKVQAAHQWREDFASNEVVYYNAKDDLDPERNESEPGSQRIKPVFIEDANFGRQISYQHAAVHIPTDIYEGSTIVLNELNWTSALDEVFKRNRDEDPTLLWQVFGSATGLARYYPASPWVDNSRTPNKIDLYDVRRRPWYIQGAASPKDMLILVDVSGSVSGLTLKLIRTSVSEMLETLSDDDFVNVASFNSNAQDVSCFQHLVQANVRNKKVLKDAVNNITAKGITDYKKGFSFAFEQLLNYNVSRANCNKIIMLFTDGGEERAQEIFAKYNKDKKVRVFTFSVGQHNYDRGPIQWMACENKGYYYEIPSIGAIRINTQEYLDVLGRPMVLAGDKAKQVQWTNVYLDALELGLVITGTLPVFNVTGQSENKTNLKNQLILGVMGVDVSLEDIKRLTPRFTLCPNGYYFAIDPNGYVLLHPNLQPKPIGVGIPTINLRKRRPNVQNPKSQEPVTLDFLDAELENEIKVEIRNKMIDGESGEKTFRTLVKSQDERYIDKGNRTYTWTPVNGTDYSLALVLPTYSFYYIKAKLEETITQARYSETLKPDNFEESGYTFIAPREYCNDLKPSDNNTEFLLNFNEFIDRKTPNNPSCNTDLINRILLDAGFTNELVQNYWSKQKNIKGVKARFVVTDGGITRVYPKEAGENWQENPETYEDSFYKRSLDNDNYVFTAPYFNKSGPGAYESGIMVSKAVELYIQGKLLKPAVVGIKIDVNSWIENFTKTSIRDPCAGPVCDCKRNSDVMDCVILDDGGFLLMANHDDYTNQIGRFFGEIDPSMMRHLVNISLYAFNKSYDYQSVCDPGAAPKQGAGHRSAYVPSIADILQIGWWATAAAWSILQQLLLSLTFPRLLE
T7 sequence (O08532 957-1103 partner limits assumed): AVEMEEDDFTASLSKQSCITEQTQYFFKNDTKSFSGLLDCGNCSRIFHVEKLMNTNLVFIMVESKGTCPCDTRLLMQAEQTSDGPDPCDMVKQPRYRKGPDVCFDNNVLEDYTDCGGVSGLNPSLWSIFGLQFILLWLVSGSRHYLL

Take `C=CC(C)(O)CCC=C(C)CCC=C(C)C` (mixture of isomers) [Nerolidol, (E)-3,7,11-trimethyldodeca-1,6,10-trien-3-ol]: in the data set with ADH, the “substrate for ADH” value is “not a substrate for ADH”. In [1], the “Predicted anti-seizure activity: long-acting (la)” value is on record as “la”. For the same compound, the “recognition by microsomal FolDH” value in the data set with microsomal FolDH is on record as “not recognized by microsomal FolDH”. Moreover, the “block of KCl-induced Ca^2+ signaling” value in data set [2] is recorded as roughly 85%.

For the compound `CC(C)=CCC/C(C)=C/CC/C(C)=C/CO` [All-trans farnesol, (2E,6E)-3,7,11-trimethyldodeca-2,6,10-trien-1-ol], in [3] (at 250 nM farnesol, typical neuronal resting membrane potential), the “block of the N-type channel” value is recorded as roughly 50%. For the same compound, the “activity on N-type Ca^2+ channels” value in data set [3] (micromolar concentration) is listed as “inhibits”. For the same compound, the “prevention of pentylenetetrazole-induced seizures” value in [4] is “not prevent”. For the same compound, in data set [5], the “activity on P/Q-type Ca^2+ channels” value is “inactive”. Besides, in data set [6], the “activity on neuronal L-type Ca^2+ channels (literature / prior studies)” value is listed as “inhibits”. Further, the “activity on cardiac L-type Ca^2+ channels” value in data set [7] is listed as “inhibits”. The Predicted anti-seizure activity result in data set [1] (based on effect on L-type Ca^2+ channels, CLogP and reversibility or ADH-FolDH recognition) is given as “++”. For the same compound, the “activity on R-type Ca^2+ channels” value in [8] is “inactive”. Also, in data set [9] (reversible and dose-dependent, read-out: IC50, effect on arteries), the IC50 is roughly 2000 nM. In addition, the “Percent seizure reduction, GROUP A” value in the data set on DBA/2J mice (300 mg/kg i.p., injected 3 hours after withdrawal) was 99%. For the same compound, in the data set with DBA/2J mice (300 mg/kg i.p., injected 6 hours after withdrawal), the “Percent seizure reduction, GROUP B” value was found to be 78%. Also, the “effect on HIC scores in ‘air-breathing’ animals” value in the data set on DBA/2J mice (300 mg/kg i.p., pyrazole-injected controls) is on record as “no significant effect”. Further, the “effect on HICs in withdrawing animals, 50 mg/kg” value in the data set on DBA/2J mice (at 50 mg/kg, worded "Preferably") was “no effect”. Besides, the “effect on HICs in withdrawing animals, 300 mg/kg” value in the data set on DBA/2J mice (dose of 300 mg/kg) is given as “suppresses almost completely”. In the data set on DBA/2J mice (mouse, in vivo), the death after injections result was “No death”, the “duration of the farnesol effect” value is on record as “approximately 1 hour” and the “toxicity of the dose inducing complete seizure suppression” value is on record as “non toxic”. Besides, the “block of KCl-induced Ca^2+ signaling” value in data set [2] came out at 65%. In addition, in the data set on WSP1 mice (200 mg/kg), the “reduction in peak ethanol withdrawal” value is on record as roughly 56%. Moreover, the “peak withdrawal effect (HIC score)” value with WSP1 mice (200 mg/kg after hour 7, average of 24, 32 and 40 minute scores, scale 0 to 7) is given as 2.67±0.29. Also, the “time point of maximum effect” value in the data set on WSP1 mice (200 mg/kg, after injection at hour 7) amounted to 32 min. Besides, the “effect on basal HICs in naïve WSP1 mice” value with WSP1 mice (200 mg/kg, preliminary experiments) is “tended to reduce basal HICs”.

`CC(C)=CCCC(C)=CCCC(C)=CC=O` [FCHO, all-trans farnesal, reference compound]: the “activity on neuronal L-type Ca^2+ channels compared with all-trans farnesol” value (“activity … compared with all-trans farnesol” for short) in data set [2] is reported as “significantly less activity than FOH”.

With `CC(C)=CCCC(C)=CCCC(C)=CCBr` [Farnesyl bromide], the “activity on KCl-induced arterial contraction” value in [10] was “did not showed significant activity”.

As to `CC(C)=CCC/C(C)=C/CC/C(=C\CO)C(F)(F)F` [Trifluorofarnesol, (2E,6E)-,7,11-dimethyl-3-(trifluoromethyl)dodeca-2,6,10-trien-1-ol], the “Predicted anti-seizure activity: long-acting (la)” value in data set [1] is listed as “la”.

Turning to `CC(C)=CCC/C(C)=C/CC/C(C)=C/C(=O)O` [farnesoic acid, all-trans farnesoic acid, reference compound], in [2], the “activity … compared with all-trans farnesol” value is “substantially inactive”.

As to `CC(=O)OCC=C(C)CCC=C(C)CCC=C(C)C` [farnesyl acetate], the “activity on KCl-induced arterial contraction” value in [10] is recorded as “did not showed significant activity”.

As to `COCC=C(C)CCC=C(C)CCC=C(C)C` [farnesyl methyl ether], the “activity on KCl-induced arterial contraction” value in data set [10] was “did not showed significant activity”.

Consider `CC(C)=CCC/C(C)=C/CC/C(C)=C/COP(=O)(O)OP(=O)(O)O` [farnesyl-PP, farnesyl pyrophosphate, reference compound], for which the “activity … compared with all-trans farnesol” value in data set [2] was “substantially inactive”.

In the case of `CC(=O)CCC=C(C)CCC=C(C)CCC=C(C)C` [farnesylacetone], in data set [10], the “activity on KCl-induced arterial contraction” value is “did not showed significant activity”.

Take `CC(C)=CCC/C(C)=C/CO` [geraniol, reference compound]: in data set [9], the “activity on Ca^2+ channels / smooth muscle L-type channels (literature / prior studies)” value is “inactive”.

Regarding `CC(C)=CCC/C(C)=C/CC/C(C)=C/CC/C(C)=C/CO` [geranylgeraniol, reference compound], the “activity on Ca^2+ channels / smooth muscle L-type channels (literature / prior studies)” value in data set [9] was “inactive”.

With `CC(C)=CCC/C(C)=C/CC/C(C)=C\CO` [“Cis” farnesol, (2Z,6E)-3,7,11-trimethyldodeca-2,6,10-trien-1-ol], the “activity on KCl-induced arterial contraction” value in [10] is given as “significantly more active”. Further, the “catalytic efficiency of ADH, lower than toward all-trans farnesol” value with ADH is on record as “approximately 10 fold”. Also, the “activity … compared with all-trans farnesol” value in data set [2] was “significantly more active”.
